Common to all, as to assay: relative viability (nuclei count vs DMSO), 5 days (fraction); higher = more cells survive
Compound in assay [1]: CC1=CC(=CC=C1)NC2=NC(=CS2)C3=CC=NC=C3 + Cc1nc(Nc2ncc(C(=O)Nc3c(C)cccc3Cl)s2)cc(N2CCN(CCO)CC2)n1 [Dasatinib] (partner 0.075 µM)
Put shortly:
(§1)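 Lung cancer cell lines in 1536-well plates got either a single drug or a fixed anchor-drug dose together with five library-drug doses (not always all listed) in √10 steps, by pin tool, on the day after seeding. Nuclei were counted after 5 days, and relative viability is the treated-to-vehicle ratio of nuclei counts. Values are medians of duplicate plates.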

Compound in the assay “Masitinib + Crizotinib”: Cc1ccc(NC(=O)c2ccc(CN3CCN(C)CC3)cc2)cc1Nc1nc(-c2cccnc2)cs1 [Masitinib] + C[C@@H](Oc1cc(-c2cnn(C3CCNCC3)c2)cnc1N)c1c(Cl)ccc(F)c1Cl [Crizotinib] (partner 1 µM)
In outline:
as §1

Compound in the assay “Masitinib + Olaparib”: Cc1ccc(NC(=O)c2ccc(CN3CCN(C)CC3)cc2)cc1Nc1nc(-c2cccnc2)cs1 [Masitinib] + O=C(c1cc(Cc2n[nH]c(=O)c3ccccc23)ccc1F)N1CCN(C(=O)C2CC2)CC1 [Olaparib] (partner 8 µM)
In outline: as §1

Compound in assay [2]: CC1=CC(=CC=C1)NC2=NC(=CS2)C3=CC=NC=C3 + CS(=O)(=O)CCNCc1ccc(-c2ccc3ncnc(Nc4ccc(OCc5cccc(F)c5)c(Cl)c4)c3c2)o1 [Lapatinib] (partner 2 µM)
Put shortly:
as §1

As to LCLC-103H, the relative viability in assay [1] (first compound 0.08 µM) was determined as 0.517; in assay [1] (first compound 0.253 µM) it was 0.44; in assay [1] (first compound 0.8 µM) it was 0.41; in assay [1] (first compound 2.53 µM), 0.386; in assay [1] (first compound 8 µM), 0.385; with Masitinib + Crizotinib (first compound 0.01 µM), 0.783. In addition, the relative viability with Masitinib + Crizotinib (first compound 0.03162 µM) was 1.08; in the assay with Masitinib + Crizotinib (first compound 0.1 µM), 0.891; in the assay with Masitinib + Crizotinib (first compound 0.3162 µM) it was 0.969; with Masitinib + Crizotinib (first compound 1 µM), 1.03; in the assay with Masitinib + Olaparib (first compound 0.03162 µM), 0.747; in the assay with Masitinib + Olaparib (first compound 0.1 µM) it was 0.75. The relative viability was 0.758 with Masitinib + Olaparib (first compound 0.3162 µM) and 0.781 in the assay with Masitinib + Olaparib (first compound 1 µM).

On to NCI-H441, for which the relative viability in assay [1] (first compound 0.08 µM) is 0.584; in assay [1] (first compound 0.253 µM), 0.482; in assay [1] (first compound 0.8 µM), 0.834; in assay [1] (first compound 2.53 µM), 0.585; in assay [1] (first compound 8 µM), 0.585; with Masitinib + Crizotinib (first compound 0.01 µM), 0.741. In addition, the relative viability came out at 0.804 with Masitinib + Crizotinib (first compound 0.03162 µM); 0.919 with Masitinib + Crizotinib (first compound 0.1 µM); 0.665 with Masitinib + Crizotinib (first compound 0.3162 µM); 0.696 in the assay with Masitinib + Crizotinib (first compound 1 µM); 0.53 with Masitinib + Olaparib (first compound 0.01 µM); 0.403 with Masitinib + Olaparib (first compound 0.03162 µM). The relative viability with Masitinib + Olaparib (first compound 0.1 µM) was 0.602; with Masitinib + Olaparib (first compound 0.3162 µM), 0.586; in the assay with Masitinib + Olaparib (first compound 1 µM) it was 0.553.

NCI-H522: the relative viability in assay [1] (first compound 0.08 µM) stood at 0.851; in assay [1] (first compound 0.253 µM), 0.792; in assay [1] (first compound 0.8 µM) it was 0.933; in assay [1] (first compound 2.53 µM) it was 0.809; in assay [1] (first compound 8 µM) it was 0.983; in the assay with Masitinib + Olaparib (first compound 0.01 µM) it was 0.609. Besides, the relative viability in the assay with Masitinib + Olaparib (first compound 0.03162 µM) stood at 0.766; with Masitinib + Olaparib (first compound 0.1 µM), 0.66; in the assay with Masitinib + Olaparib (first compound 0.3162 µM) it was 0.534; with Masitinib + Olaparib (first compound 1 µM), 0.619.

NCI-H1299: the relative viability with Masitinib + Crizotinib (first compound 0.01 µM) amounted to 0.947; with Masitinib + Crizotinib (first compound 0.03162 µM) it was 0.989; in the assay with Masitinib + Crizotinib (first compound 0.1 µM), 1.02; in the assay with Masitinib + Crizotinib (first compound 0.3162 µM) it was 1.01; with Masitinib + Crizotinib (first compound 1 µM) it was 0.96; in assay [2] (first compound 0.08 µM), 0.969. In addition, the relative viability came out at 0.938 in assay [2] (first compound 0.253 µM); 0.933 in assay [2] (first compound 0.8 µM); 0.946 in assay [2] (first compound 2.53 µM); 0.84 in assay [2] (first compound 8 µM); 0.936 with Masitinib + Olaparib (first compound 0.01 µM); 0.988 in the assay with Masitinib + Olaparib (first compound 0.03162 µM). Also, the relative viability with Masitinib + Olaparib (first compound 0.1 µM) turned out to be 0.993; with Masitinib + Olaparib (first compound 0.3162 µM), 1.06; with Masitinib + Olaparib (first compound 1 µM), 0.846.

On to NCI-H1395, for which the relative viability in assay [1] (first compound 0.08 µM) stood at 0.364; in assay [1] (first compound 0.253 µM), 0.372; in assay [1] (first compound 0.8 µM), 0.402; in assay [1] (first compound 2.53 µM), 0.397; in assay [1] (first compound 8 µM) it was 0.404; in assay [2] (first compound 0.08 µM) it was 0.882. Also, the relative viability in assay [2] (first compound 0.253 µM) worked out at 0.733; in assay [2] (first compound 0.8 µM), 0.982; in assay [2] (first compound 2.53 µM) it was 0.761; in assay [2] (first compound 8 µM), 0.818; in the assay with Masitinib + Olaparib (first compound 0.01 µM) it was 0.473; with Masitinib + Olaparib (first compound 0.03162 µM), 0.465. The relative viability stood at 0.471 with Masitinib + Olaparib (first compound 0.1 µM), 0.422 with Masitinib + Olaparib (first compound 0.3162 µM) and 0.432 with Masitinib + Olaparib (first compound 1 µM).

On to NCI-H1563, for which the relative viability was determined as 0.48 in assay [1] (first compound 0.08 µM); 0.41 in assay [1] (first compound 0.253 µM); 0.498 in assay [1] (first compound 0.8 µM); 0.404 in assay [1] (first compound 2.53 µM); 0.434 in assay [1] (first compound 8 µM); 0.833 with Masitinib + Crizotinib (first compound 0.01 µM). In addition, the relative viability in the assay with Masitinib + Crizotinib (first compound 0.03162 µM) came out at 0.865; with Masitinib + Crizotinib (first compound 0.1 µM), 0.907; with Masitinib + Crizotinib (first compound 0.3162 µM), 0.814; in the assay with Masitinib + Crizotinib (first compound 1 µM) it was 0.868; in assay [2] (first compound 0.08 µM) it was 0.912; in assay [2] (first compound 0.253 µM), 0.64. The figures for the relative viability in assay [2] (first compound 0.8 µM), in assay [2] (first compound 2.53 µM) and in assay [2] (first compound 8 µM) were 0.912, 0.761 and 0.634, respectively.

For NCI-H1648, the relative viability came out at 1.04 with Masitinib + Olaparib (first compound 0.01 µM), 0.78 with Masitinib + Olaparib (first compound 0.03162 µM), 1.08 with Masitinib + Olaparib (first compound 0.1 µM) and 0.96 in the assay with Masitinib + Olaparib (first compound 1 µM).

Regarding NCI-H1703, the relative viability with Masitinib + Crizotinib (first compound 0.01 µM) was determined as 0.483; with Masitinib + Crizotinib (first compound 0.03162 µM) it was 0.758; with Masitinib + Crizotinib (first compound 0.1 µM), 0.293; with Masitinib + Crizotinib (first compound 0.3162 µM), 0.492; with Masitinib + Crizotinib (first compound 1 µM) it was 0.139; in assay [2] (first compound 0.08 µM), 0.894. Also, the relative viability was found to be 1.21 in assay [2] (first compound 0.253 µM); 1.19 in assay [2] (first compound 0.8 µM); 1.36 in assay [2] (first compound 2.53 µM); 1.07 in assay [2] (first compound 8 µM); 0.308 with Masitinib + Olaparib (first compound 0.01 µM); 0.267 with Masitinib + Olaparib (first compound 0.03162 µM). The relative viability was determined as 0.231 with Masitinib + Olaparib (first compound 0.1 µM), 0.174 with Masitinib + Olaparib (first compound 0.3162 µM) and 0.277 in the assay with Masitinib + Olaparib (first compound 1 µM).

NCI-H1793: the relative viability in assay [1] (first compound 0.08 µM) was 0.343; in assay [1] (first compound 0.253 µM), 0.365; in assay [1] (first compound 0.8 µM), 0.454; in assay [1] (first compound 2.53 µM) it was 0.459; in assay [1] (first compound 8 µM) it was 0.356; in assay [2] (first compound 0.253 µM) it was 0.557. Moreover, the relative viability was determined as 0.642 in assay [2] (first compound 0.8 µM); 0.565 in assay [2] (first compound 2.53 µM); 0.657 in assay [2] (first compound 8 µM); 0.893 in the assay with Masitinib + Olaparib (first compound 0.01 µM); 0.777 in the assay with Masitinib + Olaparib (first compound 0.03162 µM); 1.04 in the assay with Masitinib + Olaparib (first compound 0.1 µM). In addition, the relative viability is 1.08 in the assay with Masitinib + Olaparib (first compound 0.3162 µM) and 0.768 with Masitinib + Olaparib (first compound 1 µM).

As to NCI-H2342, the relative viability amounted to 0.306 in assay [1] (first compound 0.08 µM); 0.303 in assay [1] (first compound 0.253 µM); 0.302 in assay [1] (first compound 0.8 µM); 0.278 in assay [1] (first compound 2.53 µM); 0.311 in assay [1] (first compound 8 µM); 0.447 in the assay with Masitinib + Olaparib (first compound 0.01 µM). Also, the relative viability amounted to 0.485 in the assay with Masitinib + Olaparib (first compound 0.03162 µM), 0.425 with Masitinib + Olaparib (first compound 0.1 µM), 0.44 in the assay with Masitinib + Olaparib (first compound 0.3162 µM) and 0.36 in the assay with Masitinib + Olaparib (first compound 1 µM).

In the case of SW 900, the relative viability stood at 0.358 in assay [1] (first compound 0.08 µM); 0.477 in assay [1] (first compound 0.253 µM); 0.527 in assay [1] (first compound 0.8 µM); 0.615 in assay [1] (first compound 2.53 µM); 0.383 in assay [1] (first compound 8 µM); 0.809 with Masitinib + Olaparib (first compound 0.01 µM). Further, the relative viability came to 0.878 with Masitinib + Olaparib (first compound 0.03162 µM), 0.918 in the assay with Masitinib + Olaparib (first compound 0.1 µM), 0.684 in the assay with Masitinib + Olaparib (first compound 0.3162 µM) and 0.966 in the assay with Masitinib + Olaparib (first compound 1 µM).
